Source: patent US7348315B2, “Methods of treating heart failure with modified ATP, ADP and AMP compounds” (priority 1995, dated 2008)

Target: P2 purinergic receptor
Experiment: Intact myocyte binding with the P2-selective radioligand [35S]ADPβS
Details: intact myocytes; radioligand range 0.5-200 nM; read-out: Kd of low-affinity [35S]ADPβS binding site
Experimental: Cardiac ventricular myocytes were prepared and incubated with progressively increasing concentrations of [^35S] ADPβS. The binding reaction is performed by the addition of a Dulbecco's Modified Eagle's Medium (which contains 1-glutamine and glucose but lacks phenol red, adenosine nucleotides, and sodium bicarbonate, buffered by HEPES, pH=7.4) containing [^35S]ADPβS (0.5 to 200 nM, for saturation isotherm study). Nonradioactive ADPβS is used to define the level of nonspecific binding. Additional purinergic agonists or antagonists are added depending on the experimental conditions. Following a 30-minute incubation at 37° C., cells are washed three times with 3 ml of ice-cold wash buffer (containing 120 mM NaCl, 5.4 mM KCl, 0.8 mM MgSO4, 1.8 mM CaCl2, 50 mM HEPES, and 1.0 mM NaH2PO4 adjusted to pH=7.4). One ml of 0.5 M NaOH is added to the monolayer culture to solubilize the cell protein and 0.5 ml of Tris buffer, pH=7.4 is added to neutralize NaOH prior to scintillation counting for ^35S.
To determine the Bmax and Kd of the specific [^35S]ADPβS binding, a computer-aided nonlinear regression analysis (LIGAND PROGRAM) is used. See, […] 1980, 107, 220-239. Both a one-site and a two-site model is applied to fit the data points.

## Nc1ncnc2c1ncn2[C@@H]1O[C@H](COP(=O)(O)OP(O)(O)=S)[C@@H](O)[C@H]1O [[^35S] ADPβS, [^35S] 5′-O-2-thiodiphosphate]
  Kd: 40 nM
